# Source: patent US20240287065A1, “COMPOUND AS CDK KINASE INHIBITOR AND USE THEREOF” (TYK MEDICINES (ZHENGZHOU) , INC., priority 2021, published 2024)
# What was measured:
# CDK4/CycD3 = CDK4/CycD3 (Homo sapiens, UniProt P11802); assay: Enzyme activity test; type: biochemical;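 also: values come from the source column headed CDK4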
# Protocol: (§1) • 1. The test compounds and pabocinib were configured into a […] solution of DMSO; • 2. 20 nL of stock solution was transferred to a 384-well plate using Echo550. DMSO was used as a blank control.
# (§2) • 1. according to the following table to prepare 1.3X enzyme solution containing enzyme, substrate and cofactor; • 2. 15 μL of 1.3X enzyme solution was added to each well and the mixture was incubated for 30 min at room temperature; • 3. 5 μL of ATP solution was added to initiate the reaction. The final volume of each well was 20 μL; • 4. After incubation for 150 min at room temperature, 75 μL of termination buffer solution was added to terminate the experiment; • 5. The samples were analyzed using EZ reader.
# (§3) The % inhibition was calculated using the following equation
# (§4) The one treated with DMSO is the positive control (PC)
# (§5) The one without enzyme is the negative control (NC)
# (§6) % Inhibition=100-100*((CRPC−CRsample)/(CRPC−CRNC))
# CDK6/CycD1 = CDK6/CycD1 (Homo sapiens, UniProt Q00534); assay: Enzyme activity test; type: biochemical;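 also: values come from the source column headed CDK6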
# Protocol: as §1, §2, §3, §4, §5, §6
# CDK2/CycE1 = CDK2/CycE1 (Homo sapiens, UniProt P24941); assay: Enzyme activity test; type: biochemical;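 also: values come from the source column headed CDK2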
# Protocol: as §1, §2, §3, §4, §5, §6
# OVCAR3 cells = assay: Cell proliferation inhibition assay (MTT, 7 days); type: cell-based; conditions: Homo sapiens, OVCAR-3, 168 h, 7 days incubation
# Protocol: (§7) MCF7, T47D, OVCAR3 and HCC1806 cells were inoculated in 96-well plates at 3000, 3000, 2500, and 2000 cells/well, respectively, and cultured overnight at 37° C., 5% C02 incubator.
# (§8) 1. […] Then 2.5 μl of the stock solution was dissolved in 497.5 μl of DMSO-free medium, and then a 3-fold serial gradient dilution was performed with 0.1% DMSO medium for a total of 9 concentrations, and the concentrations of the compounds after dilution were as follows: • 10000 nM, 3333.33 nM, 1111.11 nM, 370.34 nM, 123.45 nM, 41.15 nM, 13.72 nM, 4.57 nM, and 1.52 nM. • b) After fully mixing, 20 μL of compound solutions were added into cell culture plates containing 80 μL of cells respectively, with 4 replicate wells for each concentration. • c) The cells were transferred to an incubator and incubated for 7 days, and exchanged with fresh culture medium containing the same concentration of compounds when incubated to day 4. 2. MTT assay • a) The cell culture plate was taken out and 10 μL of 5 mg/ml MTT was added to the hood. • b) The cell culture plate was put back into the incubator and continued to incubate for 3 hours. • c) The cell culture plate was taken out to remove the culture medium, and 100 μL of isopropanol (0.4 mMHCl, 0.4% NP40) was added to the plate, and the plate was shaken on a shaker at room temperature for 30 minutes and read at 570 nm. 3. Data analysis
# (§9) The survival rate (% Cell Survival) was calculated using the following equation:
# (§10) % Cell Survival=100%×(OD_Sample−OD_LCave)/(OD_HC−OD_LCave) • OD_HC: 0.1‰ cell readings of DMSO control • OD_Sample: cell readings of compound addition • OD_LC: readings of blank medium • Analyed by Prizm: Dose-response-Inhibition Log(inhibitor) vs response (three parameters for the best fit)
# (§11) IC50 (nM) values were calculated by concentration-response curve fitting.
# MCF7 cells = assay: Cell proliferation inhibition assay (MTT, 7 days); type: cell-based; conditions: Homo sapiens, 168 h, 7 days incubation
# Protocol: as §7, §8, §9, §10, §11
# HCC1806 cells = assay: Cell proliferation inhibition assay (MTT, 7 days); type: cell-based; conditions: Homo sapiens, HCC1806, 168 h, HCC1086 [sic], 7 days incubation
# Protocol: as §7, §8, §9, §10, §11
# T47D cells = assay: Cell proliferation inhibition assay (MTT, 7 days); type: cell-based; conditions: Homo sapiens, 168 h, 7 days incubation
# Protocol: as §7, §8, §9, §10, §11
# Sequence of CDK6/CycD1 (Q00534 whole entry, species assumed): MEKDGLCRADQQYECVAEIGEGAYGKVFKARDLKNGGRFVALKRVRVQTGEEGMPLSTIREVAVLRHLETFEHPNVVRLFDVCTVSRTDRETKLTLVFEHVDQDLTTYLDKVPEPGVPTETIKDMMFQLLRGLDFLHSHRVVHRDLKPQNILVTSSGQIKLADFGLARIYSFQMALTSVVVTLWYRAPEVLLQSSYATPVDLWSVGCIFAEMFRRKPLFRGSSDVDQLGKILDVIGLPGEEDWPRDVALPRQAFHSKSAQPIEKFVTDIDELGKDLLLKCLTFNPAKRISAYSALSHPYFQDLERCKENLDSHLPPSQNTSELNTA
# Sequence of CDK6/CycD1 (P24385 whole entry partner, species assumed): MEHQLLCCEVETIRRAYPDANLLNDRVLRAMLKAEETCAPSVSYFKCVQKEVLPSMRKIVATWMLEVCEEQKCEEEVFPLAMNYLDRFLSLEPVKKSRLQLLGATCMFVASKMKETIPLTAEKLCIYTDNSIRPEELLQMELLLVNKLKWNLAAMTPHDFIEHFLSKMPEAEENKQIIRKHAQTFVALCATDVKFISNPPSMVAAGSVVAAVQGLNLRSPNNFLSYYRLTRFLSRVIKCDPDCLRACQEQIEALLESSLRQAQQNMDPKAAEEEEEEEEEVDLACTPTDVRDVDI
# Sequence of CDK4/CycD3 (P11802 whole entry, species assumed): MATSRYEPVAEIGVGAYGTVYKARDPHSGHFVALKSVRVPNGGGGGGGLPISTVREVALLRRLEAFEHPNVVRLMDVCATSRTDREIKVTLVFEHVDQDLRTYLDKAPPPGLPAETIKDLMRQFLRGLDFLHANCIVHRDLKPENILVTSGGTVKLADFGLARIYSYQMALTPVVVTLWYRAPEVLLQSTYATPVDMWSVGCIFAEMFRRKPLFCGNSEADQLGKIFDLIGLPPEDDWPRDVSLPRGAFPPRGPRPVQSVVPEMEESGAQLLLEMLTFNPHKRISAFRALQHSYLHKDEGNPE
# Sequence of CDK4/CycD3 (P30281 whole entry partner, species assumed): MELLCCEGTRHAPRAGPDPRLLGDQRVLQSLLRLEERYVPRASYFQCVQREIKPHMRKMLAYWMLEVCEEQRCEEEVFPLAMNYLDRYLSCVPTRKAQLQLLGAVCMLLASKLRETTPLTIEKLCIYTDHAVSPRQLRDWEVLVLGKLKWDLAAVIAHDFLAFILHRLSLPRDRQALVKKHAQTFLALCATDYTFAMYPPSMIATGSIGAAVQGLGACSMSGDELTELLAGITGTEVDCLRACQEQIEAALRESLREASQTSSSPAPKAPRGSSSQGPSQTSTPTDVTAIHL
smiles,measurement,setting,value
C[C@@]1(O)CCC[C@H]1n1c(=O)c(C2COC2)cc2cnc(NC3CCN(S(C)(=O)=O)CC3)nc21 [Example 1],IC50,CDK4/CycD3,10 to 100 nM
same,IC50,CDK6/CycD1,10 to 100 nM
same,IC50,CDK2/CycE1,< 10 nM
C[C@@]1(O)CCC[C@H]1n1c(=O)c(OC(F)F)cc2cnc(NC3CCN(S(=O)(=O)c4ccc(C(F)(F)F)cc4)CC3)nc21 [Example 5],IC50,OVCAR3 cells,50 to 5200 nM
same,IC50,MCF7 cells,50 to 5200 nM
same,IC50,HCC1806 cells,50 to 5200 nM
same,IC50,T47D cells,≤ 50 nM
same,IC50,CDK4/CycD3,10 to 100 nM
same,IC50,CDK6/CycD1,< 10 nM
same,IC50,CDK2/CycE1,< 10 nM
C[C@@]1(O)CCC[C@H]1n1c(=O)c(OC(F)F)cc2cnc(NC3CCN(S(=O)(=O)c4ccc(C#N)cc4)CC3)nc21 [Example 6],IC50,OVCAR3 cells,≤ 50 nM
same,IC50,MCF7 cells,≤ 50 nM
same,IC50,HCC1806 cells,≤ 50 nM
same,IC50,T47D cells,≤ 50 nM
same,IC50,CDK4/CycD3,< 10 nM
same,IC50,CDK6/CycD1,< 10 nM
same,IC50,CDK2/CycE1,< 10 nM
C[C@@]1(O)CCC[C@H]1n1c(=O)c(OC(F)F)cc2cnc(NC3CCN(S(=O)(=O)c4ccc(F)cc4F)CC3)nc21 [Example 7],IC50,OVCAR3 cells,50 to 5200 nM
same,IC50,MCF7 cells,50 to 5200 nM
same,IC50,HCC1806 cells,50 to 5200 nM
same,IC50,T47D cells,≤ 50 nM
same,IC50,CDK4/CycD3,< 10 nM
same,IC50,CDK6/CycD1,< 10 nM
same,IC50,CDK2/CycE1,< 10 nM
Cc1ccc(S(=O)(=O)N2CCC(Nc3ncc4cc(OC(F)F)c(=O)n([C@@H]5CCC[C@@]5(C)O)c4n3)CC2)cc1 [Example 8],IC50,OVCAR3 cells,≤ 50 nM
same,IC50,MCF7 cells,50 to 5200 nM
same,IC50,HCC1806 cells,50 to 5200 nM
same,IC50,T47D cells,≤ 50 nM
same,IC50,CDK4/CycD3,10 to 100 nM
same,IC50,CDK6/CycD1,< 10 nM
same,IC50,CDK2/CycE1,< 10 nM
C[C@@]1(O)CCC[C@H]1n1c(=O)c(OC(F)F)cc2cnc(NC3CCN(S(=O)(=O)c4ccccc4C#N)CC3)nc21 [Example 9],IC50,OVCAR3 cells,≤ 50 nM
same,IC50,MCF7 cells,50 to 5200 nM
same,IC50,HCC1806 cells,50 to 5200 nM
same,IC50,T47D cells,50 to 5200 nM
same,IC50,CDK4/CycD3,< 10 nM
same,IC50,CDK6/CycD1,< 10 nM
same,IC50,CDK2/CycE1,< 10 nM
COc1cccc(S(=O)(=O)N2CCC(Nc3ncc4cc(OC(F)F)c(=O)n([C@@H]5CCC[C@@]5(C)O)c4n3)CC2)c1 [Example 10],IC50,OVCAR3 cells,≤ 50 nM
same,IC50,MCF7 cells,50 to 5200 nM
same,IC50,HCC1806 cells,50 to 5200 nM
same,IC50,T47D cells,≤ 50 nM
same,IC50,CDK4/CycD3,< 10 nM
same,IC50,CDK6/CycD1,< 10 nM
same,IC50,CDK2/CycE1,< 10 nM
C[C@@]1(O)CCC[C@H]1n1c(=O)c(OC(F)F)cc2cnc(NC3CCN(S(=O)(=O)c4ccc(S(C)(=O)=O)cc4)CC3)nc21 [Example 11],IC50,OVCAR3 cells,≤ 50 nM
same,IC50,MCF7 cells,≤ 50 nM
same,IC50,HCC1806 cells,≤ 50 nM
same,IC50,T47D cells,≤ 50 nM
same,IC50,CDK4/CycD3,< 10 nM
same,IC50,CDK6/CycD1,< 10 nM
same,IC50,CDK2/CycE1,< 10 nM
COc1ccccc1S(=O)(=O)N1CCC(Nc2ncc3cc(OC(F)F)c(=O)n([C@@H]4CCC[C@@]4(C)O)c3n2)CC1 [Example 14],IC50,OVCAR3 cells,50 to 5200 nM
same,IC50,MCF7 cells,50 to 5200 nM
same,IC50,HCC1806 cells,50 to 5200 nM
same,IC50,T47D cells,≤ 50 nM
same,IC50,CDK4/CycD3,10 to 100 nM
same,IC50,CDK6/CycD1,< 10 nM
same,IC50,CDK2/CycE1,< 10 nM
C[C@@]1(O)CCC[C@H]1n1c(=O)c(OC(F)F)cc2cnc(NC3CCN(S(=O)(=O)c4cc(F)cc(F)c4)CC3)nc21 [Example 15],IC50,OVCAR3 cells,50 to 5200 nM
same,IC50,MCF7 cells,50 to 5200 nM
same,IC50,HCC1806 cells,50 to 5200 nM
same,IC50,T47D cells,50 to 5200 nM
same,IC50,CDK4/CycD3,< 10 nM
same,IC50,CDK6/CycD1,< 10 nM
same,IC50,CDK2/CycE1,< 10 nM
C[C@@]1(O)CCC[C@H]1n1c(=O)c(OC(F)F)cc2cnc(NC3CCN(S(=O)(=O)c4ccccc4)CC3)nc21 [Example 16],IC50,OVCAR3 cells,≤ 50 nM
same,IC50,MCF7 cells,≤ 50 nM
same,IC50,HCC1806 cells,≤ 50 nM
same,IC50,T47D cells,≤ 50 nM
same,IC50,CDK4/CycD3,< 10 nM
same,IC50,CDK6/CycD1,< 10 nM
same,IC50,CDK2/CycE1,< 10 nM
C[C@@]1(O)CCC[C@H]1n1c(=O)c(OC(F)F)cc2cnc(NC3CCN(S(=O)(=O)c4cccc(F)c4)CC3)nc21 [Example 17],IC50,OVCAR3 cells,≤ 50 nM
same,IC50,MCF7 cells,≤ 50 nM
same,IC50,HCC1806 cells,≤ 50 nM
same,IC50,T47D cells,≤ 50 nM
same,IC50,CDK4/CycD3,< 10 nM
same,IC50,CDK6/CycD1,< 10 nM
same,IC50,CDK2/CycE1,< 10 nM
C[C@@]1(O)CCC[C@H]1n1c(=O)c(OC(F)F)cc2cnc(NC3CCN(S(=O)(=O)c4ccc(F)c(F)c4)CC3)nc21 [Example 18],IC50,OVCAR3 cells,≤ 50 nM
same,IC50,MCF7 cells,50 to 5200 nM
same,IC50,HCC1806 cells,≤ 50 nM
same,IC50,T47D cells,≤ 50 nM
same,IC50,CDK4/CycD3,< 10 nM
same,IC50,CDK6/CycD1,< 10 nM
same,IC50,CDK2/CycE1,< 10 nM
CN(C)c1ccc(S(=O)(=O)N2CCC(Nc3ncc4cc(OC(F)F)c(=O)n([C@@H]5CCC[C@@]5(C)O)c4n3)CC2)cc1 [Example 22],IC50,OVCAR3 cells,≤ 50 nM
same,IC50,MCF7 cells,50 to 5200 nM
same,IC50,HCC1806 cells,50 to 5200 nM
same,IC50,T47D cells,≤ 50 nM
same,IC50,CDK4/CycD3,10 to 100 nM
same,IC50,CDK6/CycD1,< 10 nM
same,IC50,CDK2/CycE1,< 10 nM
CC(C)(C)c1ccc(S(=O)(=O)N2CCC(Nc3ncc4cc(OC(F)F)c(=O)n([C@@H]5CCC[C@@]5(C)O)c4n3)CC2)cc1 [Example 23],IC50,OVCAR3 cells,50 to 5200 nM
same,IC50,MCF7 cells,50 to 5200 nM
same,IC50,HCC1806 cells,200 to 51000 nM
same,IC50,T47D cells,50 to 5200 nM
same,IC50,CDK4/CycD3,10 to 100 nM
same,IC50,CDK6/CycD1,10 to 100 nM
same,IC50,CDK2/CycE1,< 10 nM
COc1ccc(S(=O)(=O)N2CCC(Nc3ncc4cc(OC(F)F)c(=O)n([C@@H]5CCC[C@@]5(C)O)c4n3)CC2)cc1 [Example 24],IC50,OVCAR3 cells,≤ 50 nM
same,IC50,MCF7 cells,≤ 50 nM
same,IC50,HCC1806 cells,≤ 50 nM
same,IC50,T47D cells,≤ 50 nM
same,IC50,CDK4/CycD3,< 10 nM
same,IC50,CDK6/CycD1,< 10 nM
same,IC50,CDK2/CycE1,< 10 nM
C[C@@]1(O)CCC[C@H]1n1c(=O)c(OC(F)F)cc2cnc(NC3CCN(S(=O)(=O)c4ccccc4F)CC3)nc21 [Example 25],IC50,OVCAR3 cells,≤ 50 nM
same,IC50,MCF7 cells,50 to 5200 nM
same,IC50,HCC1806 cells,50 to 5200 nM
same,IC50,T47D cells,≤ 50 nM
same,IC50,CDK4/CycD3,10 to 100 nM
same,IC50,CDK6/CycD1,< 10 nM
same,IC50,CDK2/CycE1,< 10 nM
CN1CCC(c2ccc(Nc3ncc4cc(OC(F)F)c(=O)n([C@@H]5CCC[C@@]5(C)O)c4n3)cc2)CC1 [Example 61],IC50,CDK4/CycD3,< 10 nM
same,IC50,CDK6/CycD1,< 10 nM
same,IC50,CDK2/CycE1,10 to 100 nM
C[C@@]1(O)CCC[C@H]1n1c(=O)c(OC(F)F)cc2cnc(NC3CCN(S(=O)(=O)N4CCOCC4)CC3)nc21 [Example 66],IC50,OVCAR3 cells,≤ 50 nM
same,IC50,HCC1806 cells,50 to 5200 nM
same,IC50,T47D cells,50 to 5200 nM
same,IC50,CDK4/CycD3,10 to 100 nM
same,IC50,CDK6/CycD1,< 10 nM
same,IC50,CDK2/CycE1,< 10 nM
CN([C@H]1CC[C@H](Nc2ncc3cc(OC(F)F)c(=O)n([C@@H]4CCC[C@@]4(C)O)c3n2)CC1)S(C)(=O)=O [Example 69],IC50,CDK4/CycD3,10 to 100 nM
same,IC50,CDK6/CycD1,10 to 100 nM
same,IC50,CDK2/CycE1,< 10 nM
